The text below walks through data of article PMC4467461, “Small-molecule activation of SERCA2a SUMOylation for the treatment of heart failure” (Nature Communications, 2015).

The subject of this assay is pressure overload-induced mouse model of HF (TAC). Kind of assay: Invasive P–V loop haemodynamics in TAC heart failure mice. The assay is classed as in vivo. The protocol: B6C3F1 mice were acquired from Jackson Laboratories. Mice underwent TAC using a supraclavicular construction model as described. TAC or sham surgery was performed in 8∼10-week-old male mice (25∼30 g). Mice were anaesthetized with intraperitoneal ketamine (95 mg kg^−1) and xylaxine (5 mg kg^−1), and ventilated with a tidal volume of 0.1 ml and a respiratory rate of 110 breaths per minute (Harvard Apparatus, MA, USA). A 2- to 3-mm longitudinal cut was made in the proximal portion of the sternum, allowing visualization of the aortic arch. The transverse aortic arch was ligated between the innominate and left common carotid arteries with an overlaying 27-gauge needle. The needle was immediately removed, leaving a discrete region of constriction. Animal sham group underwent a similar procedure without ligation. Only animals with fractional shortening < 50% were determined as being in HF and suitable for further study.
One day after echocardiography, we performed in-vivo haemodynamics. The mice were anaesthetized with an intraperitoneal injection mixture of urethane (1 mg g^−1), etomidate (10 μg g^−1) and morphine (1 μg g^−1), and were then intubated via a tracheotomy and mechanically ventilated at 7 μl g^−1 tidal volume and 120 respirations per minute. A small incision was made in the apex and a French Millar cathether connected a high-fidelity pressure transducer (Scisense, London, ON, Canada) inserted into the LV. Haemodynamic recordings were performed after 5∼10 min of stable HR. The rate of pressure rise (+dP/dt) and maximal pressure, the time constant of isovolumic relaxation and HR were recorded and analysed. To determine the relative effects of the admittance and conductance techniques to contractility change induced by N106 compound infusion, whole haemodynamic function was recorded at both baseline and after administration of N106 compound through the external jugular vein. N106 compound was solubilized in 10% DMSO (Sigma-Aldrich), 10% Tween-80 (Sigma-Aldrich) and saline for in-vivo experiments. N106 or vehicle solutions were continuously infused through the external jugular vein at a rate of 50 μl min^−1 for 2 min in each dose. Whole haemodynamic functions of increasing dose of N106 of each mouse were recorded for ∼4 h. Each dose of N106 solution was infused after back to baseline of heart function.

As for `COc1ccc(-c2nnc(Nc3nc4c(OC)cccc4s3)o2)cc1` [Compound N106, N-(4-methoxybenzo[d]thiazol-2-yl)-5-(4-methoxyphenyl)-1,3,4-oxadiazol-2-amine], for the setting “0.1 mg kg^−1 infusion”, the “+dP/dtmax” value is given as 4803.33±91.78 mm Hg s^−1; the HR worked out at 417.11±4.54 bpm; the Pmax is recorded as 115.11±1.27 mm Hg; the “τ, time constant of isovolumetric relaxation” value (“τ, time constant” below) amounted to 7.50 ± 0.15 ms. Also, the ESPVR slope (0.1 mg kg^−1 infusion via jugular vein) is 9.04±1.20 mm Hg μl^−1. Under “1 mg kg^−1 infusion”, the “+dP/dtmax” value is on record as 5448.83±147.09 mm Hg s^−1, the ESPVR slope is on record as 11.26±1.00 mm Hg μl^−1, the HR stood at 422.33±3.79 bpm and the Pmax came to 123.66±5.28 mm Hg. In addition, the “τ, time constant” value (1 mg kg^−1 infusion) is 6.40 ± 0.15 ms. Under “10 mg kg^−1 infusion”, the “+dP/dtmax” value is on record as 6229.41±103.23 mm Hg s^−1, the ESPVR slope was 20.3±0.41 mm Hg μl^−1, the HR was 455.08±5.62 bpm and the Pmax was 124.50±4.26 mm Hg. Also, the “τ, time constant” value (10 mg kg^−1 infusion) came to 6.27 ± 0.13 ms.
